In patent US8568745B2, “Water-soluble drug carrier and process for producing the same” (Kyushu University, National University Corporation, priority 2009, dated 2013):

Assay: Dispersibility of FITC-DEX-encapsulated S/W with additives
Format: physicochemical
Details: additive 125 mg/mL in aqueous phase of S/O/W emulsion
Method: In order to reduce the particle size in S/W, the additives presented in Table 1 were added to the aqueous phase of the S/O/W emulsion during the preparation of S/W, and the dispersibility of each sample was observed.
(2) Cyclohexane (3.0 mL) was added to (1) to obtain an FITC-DEX-encapsulated S/O.
(3) A PC-ER-290-FITC-DEX complex solid was obtained by freeze drying the S/O/W emulsion prepared by agitating the solution of (2) (0.50 mL), and 5.0 mL of an aqueous solution (containing 2.5 mg/mL PC, and each additive at a concentration of 125 mg/mL) in a 12-mL vial container using a homogenizer.
(4) A 0.1 TE buffer (5.0 mL) was added to (3) to obtain an FITC-DEX-encapsulated S/W.

Row | dispersibility / particle size of FITC-DEX-encapsulated S/W with additive | SMILES
1 | relatively small particle sizes | OC[C@@H](O)[C@@H](O)[C@H](O)[C@@H](O)CO [sorbitol]
2 | relatively small particle sizes | OC[C@H]1O[C@H](O[C@H]2O[C@H](CO)[C@@H](O)[C@H](O)[C@H]2O)[C@H](O)[C@@H](O)[C@@H]1O [trehalose]
3 | relatively small particle sizes | OCC(O)CO [Glycerine]
